{
  "source": "ChEMBL document CHEMBL4602617",
  "about": "“Discovery and optimization of heteroaryl piperazines as potent and selective PI3Kδ inhibitors” (Bioorg Med Chem Lett, 2020)",
  "key": {"[1]": {"biological_target": "Protein kinase C beta type (Homo sapiens, UniProt P05771)", "sequence (P05771 whole entry)": "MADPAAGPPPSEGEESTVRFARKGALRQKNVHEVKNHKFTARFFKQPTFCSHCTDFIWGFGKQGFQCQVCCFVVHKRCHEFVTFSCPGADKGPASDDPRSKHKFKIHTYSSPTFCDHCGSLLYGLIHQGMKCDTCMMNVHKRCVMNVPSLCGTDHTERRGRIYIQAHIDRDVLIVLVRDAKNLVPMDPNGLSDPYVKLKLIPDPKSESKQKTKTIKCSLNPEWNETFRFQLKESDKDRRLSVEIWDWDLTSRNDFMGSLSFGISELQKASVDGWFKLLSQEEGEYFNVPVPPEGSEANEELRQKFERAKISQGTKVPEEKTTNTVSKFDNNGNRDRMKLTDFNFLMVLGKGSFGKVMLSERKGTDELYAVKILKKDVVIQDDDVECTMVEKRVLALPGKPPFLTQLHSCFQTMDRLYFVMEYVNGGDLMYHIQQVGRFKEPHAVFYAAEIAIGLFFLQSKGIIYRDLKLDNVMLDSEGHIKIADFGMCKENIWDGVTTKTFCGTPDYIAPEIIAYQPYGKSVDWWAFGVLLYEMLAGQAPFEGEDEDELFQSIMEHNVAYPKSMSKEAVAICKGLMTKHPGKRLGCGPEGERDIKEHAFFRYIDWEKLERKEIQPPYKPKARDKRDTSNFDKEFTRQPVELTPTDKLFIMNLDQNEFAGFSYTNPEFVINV", "test": "Inhibition of recombinant full length human GST-tagged PKCbeta2 expressed in insect expression system using serine/threonine-7 peptide as substrate incubated for 60 mins in presence of ATP by Z'-LYTE assay"}, "[2]": {"tested_on": "Atrial natriuretic peptide receptor 1 (Cavia porcellus)", "test": "Inhibition of guniea pig ANF at 10 uM relative to control"}, "[3]": {"biological_target": "C-C chemokine receptor type 1 (Homo sapiens) (UniProt P32246)", "sequence (P32246 whole entry)": "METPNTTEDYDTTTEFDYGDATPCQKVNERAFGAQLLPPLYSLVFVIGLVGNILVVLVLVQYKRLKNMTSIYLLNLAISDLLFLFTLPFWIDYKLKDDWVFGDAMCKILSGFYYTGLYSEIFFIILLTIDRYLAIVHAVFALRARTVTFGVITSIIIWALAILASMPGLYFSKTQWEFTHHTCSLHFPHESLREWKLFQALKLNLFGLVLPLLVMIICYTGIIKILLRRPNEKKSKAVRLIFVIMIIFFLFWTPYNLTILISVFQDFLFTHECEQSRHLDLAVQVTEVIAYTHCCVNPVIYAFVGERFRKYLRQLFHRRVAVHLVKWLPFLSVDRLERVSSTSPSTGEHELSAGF", "test": "Displacement of [125I]MIP-1alpha from recombinant full length human recombinant CCR1 expressed in Chem2 cells at 10 uM measured after 3 hrs by radiometric scintillation analysis relative to control", "format": "cell-based"}, "[4]": {"biological_target": "Substance-K receptor (Homo sapiens) (UniProt P21452)", "sequence (P21452 whole entry)": "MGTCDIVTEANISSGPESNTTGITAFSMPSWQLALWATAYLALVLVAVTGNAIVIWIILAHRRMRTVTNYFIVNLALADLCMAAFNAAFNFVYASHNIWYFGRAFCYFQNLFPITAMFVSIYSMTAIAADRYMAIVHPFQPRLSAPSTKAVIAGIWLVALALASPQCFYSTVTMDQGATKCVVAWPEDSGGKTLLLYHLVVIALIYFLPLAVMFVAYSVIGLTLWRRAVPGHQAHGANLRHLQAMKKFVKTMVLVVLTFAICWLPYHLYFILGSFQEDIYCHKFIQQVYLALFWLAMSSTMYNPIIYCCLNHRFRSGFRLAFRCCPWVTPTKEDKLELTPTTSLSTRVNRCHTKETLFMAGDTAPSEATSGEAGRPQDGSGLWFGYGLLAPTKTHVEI", "test": "Inhibition of human NK2 receptor at 10 uM relative to control"}, "[5]": {"biological_target": "Mitogen-activated protein kinase 3 (Homo sapiens, UniProt P27361)", "sequence (P27361 whole entry)": "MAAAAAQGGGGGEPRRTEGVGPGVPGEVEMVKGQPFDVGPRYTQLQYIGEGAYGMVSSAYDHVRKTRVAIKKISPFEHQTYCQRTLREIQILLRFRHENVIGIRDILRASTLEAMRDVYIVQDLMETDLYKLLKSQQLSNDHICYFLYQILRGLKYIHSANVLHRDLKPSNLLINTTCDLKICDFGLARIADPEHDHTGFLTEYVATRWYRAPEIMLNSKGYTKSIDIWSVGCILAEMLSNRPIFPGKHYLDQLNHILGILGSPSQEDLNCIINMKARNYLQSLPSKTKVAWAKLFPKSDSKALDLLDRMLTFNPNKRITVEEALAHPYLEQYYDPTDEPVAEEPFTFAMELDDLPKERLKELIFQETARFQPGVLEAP", "test": "Inhibition of recombinant full-length human ERK1 expressed in Escherichia coli at 10 uM using MBP as substrate after 30 mins by radiometric scintillation analysis relative to control"}, "[6]": {"biological_target": "Mitogen-activated protein kinase 12 (Homo sapiens, UniProt P53778)", "sequence (P53778 whole entry)": "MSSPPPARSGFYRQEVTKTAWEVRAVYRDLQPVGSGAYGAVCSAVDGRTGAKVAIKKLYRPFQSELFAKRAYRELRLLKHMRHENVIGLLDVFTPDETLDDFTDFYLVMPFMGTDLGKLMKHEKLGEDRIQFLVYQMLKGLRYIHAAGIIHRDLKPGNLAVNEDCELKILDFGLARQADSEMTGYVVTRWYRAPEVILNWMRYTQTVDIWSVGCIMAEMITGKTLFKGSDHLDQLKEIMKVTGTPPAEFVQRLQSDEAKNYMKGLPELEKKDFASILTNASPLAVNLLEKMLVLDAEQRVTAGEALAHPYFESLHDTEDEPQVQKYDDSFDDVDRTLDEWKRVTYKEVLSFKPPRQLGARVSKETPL", "test": "Inhibition of recombinant full length human His-tagged p38gamma expressed in baculovirus expression system using serine/threonine-3 peptide as substrate incubated for 60 mins in presence of ATP by Z'-LYTE assay"}},
  "note": "pIC50: −log10 of the molar value.",
  "data": [
    {"smiles": "C[C@@H]1C[C@H]1C(=O)N1CCN(c2cnc(C#N)c(-c3cnn(C)c3)n2)C[C@H]1C", "values": [
      {"measurement": "pIC50", "setting": "[1]", "result": "< 4.00"},
      {"measurement": "inhibition", "setting": "[2]", "result": 8, "unit": "%"},
      {"measurement": "inhibition", "setting": "[3]", "result": 8, "unit": "%"},
      {"measurement": "inhibition", "setting": "[4]", "result": 1, "unit": "%"},
      {"measurement": "inhibition", "setting": "[5]", "result": 18, "unit": "%"},
      {"measurement": "pIC50", "setting": "[6]", "result": "< 4.00"}
    ]}
  ]
}
